“Also recorded” adds a separate entry of the source.
Columns and labels:
HeLa cells [1] = assay: Cell viability assay (MTT); assay type: cell-based, human; conditions: 24 h, serum containing medium; for Cell viability (MTT): HeLa, unlabeled peptide 0, 5, 10 and 20 μM, 37 °C
Protocol: (§1) Figure 3 Cell viability assay. (A) HeLa, (B) PC3 and (C) MDA-MB-231 cells were incubated with increasing concentrations (5, 10, and 20 μM) of peptides in serum containing medium at 37 °C for 24 h. Cell viability was measured by MTT assay. Viability of only cells (without peptide) was taken as 100% and viabilities of cells treated with increasing concentration of peptides were plotted as percentage of control.
(§2) Cell viability was determined by MTT assay. Briefly, cells (HeLa, PC3 and MDA-MB-231) were seeded at a density of 5 × 10^3 cells/well in 96-well microtiter plates in medium supplemented with 10% FBS 24 h before the start of the experiment. Cells were incubated with different concentrations (5, 10, and 20 μM, respectively) of unlabeled peptides for 24 h. […] At the end of the incubation period, cell growth was assayed by the addition of 20 μl of MTT (5 mg/mL; Sigma-Aldrich) to each well, and plate was incubated at 37 °C for 4 h. Later, the medium was removed carefully, 200 μl DMSO was added and mixed, and the absorbance was read at 570 nm with a microplate reader (Bio-Rad). The survival of cells relative to the control (cells incubated with growth medium containing no peptide) was calculated by taking the ratio of the absorbance at 570 nm values. All the experiments were performed in triplicates.

HeLa cells [2] = assay: Confocal laser scanning microscopy, intracellular localization in live cells; conditions: FITC-labeled peptide 2.5 μM, 30 min, 37 °C
Protocol: Cells were washed with PBS thrice and live cells were imaged. Scale bars are 10 μm.
Cells were not fixed to avoid artifactual localization of the internalized peptide. At the end of the incubation period, culture medium was removed, and coverslips were washed thoroughly with PBS for 3–5 minutes (thrice) and mounted on glass slides with the antifade reagent.
Thereafter, cells were washed with PBS thrice and immediately examined using the confocal microscope.

PC3 cells = assay: Cell viability assay (MTT); assay type: cell-based, human; conditions: unlabeled peptide 5, 10 and 20 μM, 24 h, serum containing medium
Protocol: as §1, §2

MDA-MB-231 cells = assay: Cell viability assay (MTT); assay type: cell-based, human; conditions: unlabeled peptide 5, 10 and 20 μM, 24 h, serum containing medium
Protocol: as §1, §2

Q: For KLAKLAKKLAKLAK [reference compound], which “Cell viability (MTT)” value (HeLa cells [1]) is on record?
A: Its value is “not effective at any concentration tested”.

Q: What about the “Internalization / fluorescence in cells by CLSM” value (HeLa cells [2]) of the same sequence?
A: Its value is “no fluorescence”.

Q: “KLAKLAKKLAKLAKRRWRRWNRFNRRRCR [IMT-P8-KLA, fusion peptide of KLA and IMT-P8, 29 aa]” was tested. Which “Cell viability (MTT)” value (PC3 cells) did it give?
A: The value was “dose-dependent decrease in cell viability”.

Q: What about the “Cell viability (MTT)” value (HeLa cells [1]) of the same sequence?
A: Its value is “dose-dependent decrease in cell viability; also recorded: caused significant cell death”.

Q: What about the “Cell viability (MTT) at 20 μM” value (HeLa cells [1]; unlabeled peptide 20 μM, HeLa (text says all cell lines examined)) of the same sequence?
A: Its value is “significant decrease in cell viability”.

Q: And the “Cell viability (MTT)” value (MDA-MB-231 cells)?
A: Its value is “dose-dependent decrease in cell viability”.

Q: How did the “Cell viability (MTT)” value (HeLa cells [1]) turn out when “RRWRRWNRFNRRRCR [IMT-P8, novel human protein-derived arginine-rich cell-penetrating peptide (Institute of Microbial Technology-Peptide 8), 15 aa]” was run?
A: Its value is “not effective at any concentration tested”.

— publication PMC4870705, “Topical Delivery of Protein and Peptide Using Novel Cell Penetrating Peptide IMT-P8” (Scientific Reports, 2016)
